According to the NIST ThermoML archive (doi:10.1016/j.jct.2016.09.028):

Test: xn = mol fraction of the nth substance listed
Settings: 100 kPa, Liquid; for speed of sound: Frequency=3 MHz, Sing-around technique in a fixed-path interferometer; for mass density: Vibrating tube method

Nc1ccccc1 [aniline] + CCn1cc[n+](C)c1.F[B-](F)(F)F
Settings | mass density, 293.15 K [kg/m3] | mass density, 303.15 K [kg/m3] | mass density, 313.15 K [kg/m3] | mass density, 323.15 K [kg/m3] | speed of sound, 293.15 K [m/s] | speed of sound, 303.15 K [m/s] | speed of sound, 313.15 K [m/s] | speed of sound, 323.15 K [m/s]
x2 = 0 | 1021.69 | 1013.04 | 1004.36 | 995.66 | 1656.8 | 1618.3 | 1580 | 1541.9
x2 = 0.1008 | 1068.09 | 1059.52 | 1050.95 | 1042.39 | 1673.6 | 1634.2 | 1596.5 | 1561.8
x2 = 0.2035 | 1112.92 | 1104.8 | 1096.69 | 1088.57 | 1684.8 | 1650.6 | 1616.2 | 1583
x2 = 0.3059 | 1153.03 | 1144.58 | 1136.13 | 1127.68 | 1689.8 | 1657.2 | 1625.5 | 1593
x2 = 0.4053 | 1183.5 | 1175.21 | 1166.91 | 1158.62 | 1688.9 | 1658.9 | 1628.7 | 1596.8
x2 = 0.5073 | 1208.33 | 1200.1 | 1191.87 | 1183.64 | 1684.6 | 1654.5 | 1624.2 | 1593.2
x2 = 0.6013 | 1227.06 | 1219.01 | 1210.96 | 1202.91 | 1673.9 | 1646.2 | 1617.6 | 1589.3
x2 = 0.7046 | 1244.52 | 1236.64 | 1228.76 | 1220.88 | 1660.6 | 1634.7 | 1608.8 | 1582.3
x2 = 0.8067 | 1260.47 | 1252.74 | 1245.01 | 1237.28 | 1648.4 | 1623.8 | 1599.4 | 1575.4
x2 = 0.9059 | 1272.26 | 1264.62 | 1256.98 | 1249.34 | 1638.8 | 1614.2 | 1591.8 | 1568.9
